The source of these data is patent publication US8252832B2, “Kinesin inhibitors as cancer therapeutics” (Novartis AG, priority 2007, dated 2012).

Read-outs that look alike come from different tables or passages of the source. Marks after values point to notes of the source that are not given here.

One data set relates to HCT15 tumor xenograft. The experiment in a line: HCT15 tumor xenograft model, tumor response. The data set is classed as in vivo, mouse. As to the method:
(§1) Routine animal care and assurance of welfare were as described above.
Human HCT15 colon carcinoma cells were obtained from the National Cancer Institute's DCTD Tumor Repository (catalog #NCI-502711, Rockville, Md.). HCT15 cells were grown in RPMI 1640 with 2 mM L-glutamine (Mediatech Inc., catalog #15-040-CV) supplemented with 10% fetal bovine serum (JRH Biosciences, catalog #12003-1000M). The cells were tested to be free of Mycoplasma sp. and murine viruses in the IMPACT1 PCR assay panel (RADIL, University of Missouri, Columbia, Mo.)
These cells were grown as adherent cultures, maintained at 37° C. in a humidified atmosphere containing 5% carbon dioxide. Cells were cultured for fewer than 10 passages prior to use. Cells were harvested at 95% confluency, and centrifuged at ˜800×g for 5 minutes at 4° C. and then resuspended in a 1:1 ratio of HBSS (Mediatech Inc., catalog #21-021-CV) plus Matrigel™ at a concentration of 50 million cells/mL for implantation subcutaneously (injection volume of 0.2 mL).
(§2) Treatments for the efficacy studies were initiated 10 days following tumor cell implantation when tumors were approximately 300 mm^3. Compound IIa and SB-715992 were administered intravenously (i.v.) via the tail vein in a volume of 8 mL/kg at the doses indicated. Paclitaxel was administered intraperitoneally (i.p.) in a volume of 16 mL/kg at 30 mg/kg.
(§3) Tumor volume was calculated as (L×W2)/2. […] Data was analyzed as described above.

The conditions of data set [1]: q4d × 3. As to the method: Experiments were performed using outbred athymic nu/nu mice (Charles River Laboratories) approximately 6-8 weeks old. Upon arrival, animals received a subcutaneous microchip implant (AVID, Folsom, La.) in the subscapular region for identification of individuals. Animals were allowed to acclimatize for 1 week before any experimental procedures began.
Compound IIa, compound IIc, compound IIa (shown below), and SB-715992 were formulated in a Captisol®-based formulation. Doses were administered intravenously (i.v.) and adjusted to each animal's body weight. Formulations were made once at the beginning of study and stored at room temperature. Clinical grade paclitaxel was purchased pre-mixed in a cremophor-based vehicle (Mayne Pharma, now Hospira, Lake Forest, Ill., catalog #NDC-6170334209) and diluted in sterile saline to provide a dose volume of 16 mL/kg for a 30 mg/kg dose administered intraperitoneally (i.p.)
For the efficacy studies, mice were enrolled with a mean tumor volume of approximately 300 mm^3. Tumor xenografts were measured in two dimensions (L and W) with digital calipers twice weekly from the start of dosing on Day 0. Tumor volume was calculated as (L×W^2)/2. Body weights were measured twice weekly and clinical observations were recorded daily. Tumor volume and body weights were captured and stored by StudyDirector software (StudyLog, South San Francisco, Calif.).

The subject of another data set is KB8.5 tumor xenograft. As to the kind of experiment: KB8.5 tumor xenograft model (P-gp expressing), tumor response. The data set is classed as in vivo, mouse. The settings on record: q4d × 3. As to the method: Cells were cultured for fewer than 10 passages prior to use. […] All data were expressed as mean and SEM. Between-groups comparisons for final tumor measurements were performed using the one-way ANOVA pair-wise analysis. Significance was determined using Kruskal-Wallis one-way ANOVA on Ranks, followed by appropriate post-hoc test (Dunn's Method or Tukey Test) for multiple pair-wise comparisons. Statistical analysis was carried out using SigmaStat (Systat Software Inc., San Jose, Calif.).

Data set [2] is described as follows: HCT15 tumor xenograft model, host response. The data set is classed as in vivo, mouse. As to the method: as §1, §2, §3
Data set [3] can be described thus: Subcutaneous KMS-11-luc tumor xenograft model, host response. Format: in vivo, mouse. The method, then: Experiments were performed using immunodeficient SCID-Beige female mice approximately 7-8 weeks old (Charles River Laboratories, Wilmington, Mass.). […] Routine animal care and assurance of welfare were as described above.
Compound IIa and SB-715992 (free base) were formulated in 20% Captisol for a dose volume of 8 mL/kg. Doses were adjusted to each animal's body weight.
For the efficacy evaluation in the subcutaneous tumor model, 10 million cells combined in a 1:1 mixture of HBSS and Matrigel™ were injected subcutaneously in the right flank in a total volume of […]. […] Tumor volume was calculated as (L×W2)/2. […] Data analysis was as described above.

In the case of `CC(C)(C)[C@H](c1nc(-c2cc(F)ccc2F)cn1Cc1ccccc1)N(CC[C@H](N)CF)C(=O)CO` [Compound IIa], the “Δ Tumor volume, Day 15” value is reported as 671 ± 172 mm^3 in the data set on HCT15 tumor xenograft (1.25 mg/kg, q4d × 3, i.v); 735 ± 159 mm^3 with HCT15 tumor xenograft (2.5 mg/kg, q4d × 3, i.v); 99 ± 78 mm^3 in the data set with HCT15 tumor xenograft (4.0 mg/kg, q4d × 3, i.v). For the same compound, the “ΔT/ΔC, Day 15 (%)” value in the data set on HCT15 tumor xenograft (1.25 mg/kg, q4d × 3, i.v) was 60%; in the data set on HCT15 tumor xenograft (2.5 mg/kg, q4d × 3, i.v), 65%; in the data set with HCT15 tumor xenograft (4.0 mg/kg, q4d × 3, i.v, listed as COMPOUND IIa), 26* %; in the data set with HCT15 tumor xenograft (4.0 mg/kg, q4d × 3, i.v, listed as compound IIa) it was 26%. The “Survival (alive/total)” value in data set [1] (5 mg/kg, i.v.) is reported as 9/9; in data set [2] (1.25 mg/kg, q4d × 3, i.v), 9/9; in data set [2] (2.5 mg/kg, q4d × 3, i.v), 9/9; in data set [2] (4.0 mg/kg, q4d × 3, i.v), 9/9; in data set [3] (0.25 mg/kg, Q4d × 3, i.v), 9/9; in data set [3] (0.5 mg/kg, Q4d × 3, i.v), 9/9. In addition, the “Survival (alive/total)” value in data set [3] (1 mg/kg, Q4d × 3, i.v) is 8/9. Also, in data set [1] (5 mg/kg, i.v., D11), the “% Max. Δ body weight, (Day)” value is on record as −2 (D11) %. For the same compound, in the data set on KB8.5 tumor xenograft (5 mg/kg, i.v.), the “ΔT/ΔC, Day 11 (%)” value was found to be 19%.
Take `CC(=O)O[C@H]1C(=O)[C@@]2(C)[C@H]([C@H](OC(=O)c3ccccc3)[C@]3(O)C[C@H](OC(=O)[C@H](O)[C@@H](NC(=O)c4ccccc4)c4ccccc4)C(C)=C1C3(C)C)[C@]1(OC(C)=O)CO[C@@H]1C[C@@H]2O` [Paclitaxel, reference compound]: the “Δ Tumor volume, Day 15” value in the data set on HCT15 tumor xenograft (30 mg/kg, Q4d × 3, i.p.) came out at 703 ± 198 mm^3. Further, the “ΔT/ΔC, Day 15 (%)” value with HCT15 tumor xenograft (30 mg/kg, Q4d × 3, i.p.) turned out to be 104%. For the same compound, the “Survival (alive/total)” value was 9/9 in data set [1] (30 mg/kg, i.p.); 9/9 in data set [1] (Table 14 study, 30 mg/kg, i.p.); 10/10 in data set [1] (Table 15 study, 30 mg/kg, i.p.); 9/9 in data set [2] (30 mg/kg, Q4d × 3, i.p.); 9/9 in data set [3] (30 mg/kg, Q4d × 3, i.p.). Moreover, the “ΔT/ΔC, Day 11 (%)” value is reported as 78% in the data set on KB8.5 tumor xenograft (30 mg/kg, i.p.); 87% in the data set with KB8.5 tumor xenograft (Table 14 study, 30 mg/kg, i.p.); 60% with KB8.5 tumor xenograft (Table 15 study, 30 mg/kg, i.p., not statistically different from vehicle).
As to `Cc1ccc(C(=O)N(CCCN)[C@@H](c2nc3cc(Cl)ccc3c(=O)n2Cc2ccccc2)C(C)C)cc1` [SB-715992, Ispinesib, reference compound], the “Δ Tumor volume, Day 15” value in the data set with HCT15 tumor xenograft (7.5 mg/kg, q4d × 3, i.v) was 647 ± 164 mm^3; in the data set with HCT15 tumor xenograft (15 mg/kg, q4d × 3, i.v.), 491 ± 109 mm^3. In addition, the “ΔT/ΔC, Day 15 (%)” value is recorded as 87% in the data set with HCT15 tumor xenograft (7.5 mg/kg, q4d × 3, i.v) and 67% with HCT15 tumor xenograft (15 mg/kg, q4d × 3, i.v.). Besides, the “Survival (alive/total)” value in data set [1] (15 mg/kg, i.v.) is listed as 9/9; in data set [1] (Table 14 study, 15 mg/kg, i.v.), 9/9; in data set [1] (Table 15 study, 15 mg/kg, i.v.), 10/10; in data set [2] (7.5 mg/kg, q4d × 3, i.v), 9/9; in data set [2] (15 mg/kg, q4d × 3, i.v.), 9/9; in data set [3] (7.5 mg/kg, Q4d × 3, i.v.) it was 9/9. The “% Max. Δ body weight, (Day)” value is on record as 4 (D7) % in data set [1] (15 mg/kg, i.v., D7); −1 (D4) % in data set [1] (Table 14 study, 15 mg/kg, i.v., D4); −3 (D11) % in data set [1] (Table 15 study, 15 mg/kg, i.v., D11). Besides, the “ΔT/ΔC, Day 11 (%)” value was 56% in the data set with KB8.5 tumor xenograft (15 mg/kg, i.v.); 77% with KB8.5 tumor xenograft (Table 14 study, 15 mg/kg, i.v.); 60% in the data set on KB8.5 tumor xenograft (Table 15 study, 15 mg/kg, i.v., not statistically different from vehicle). Further, the “Max. Δ body weight (Day)” value is 0.6 ± 0.2 g in data set [2] (7.5 mg/kg, q4d × 3, i.v, D8); -1.2 ± 0.4 g in data set [2] (15 mg/kg, q4d × 3, i.v, D10); -0.96 ± 0.31 g in data set [3] (7.5 mg/kg, Q4d × 3, i.v., D10). Moreover, the “Max. Δ body weight (Day) (%)” value in data set [2] (7.5 mg/kg, q4d × 3, i.v, D8) was 2.6 ± 1.0%; in data set [3] (7.5 mg/kg, Q4d × 3, i.v., D10) it was −4.8 ± 1.93%.
